“Also recorded” adds a separate entry of the source.
Tests used:
Assay type in all cases: cell-based
SK-N-SH cells [1] = assay: Lamin A level by immunostaining after anti-cancer drug treatment; settings: SK-N-SH cells remaining attached after 24 h; DOX 1 μM, Etop 10 μM; vs DMSO; FIG. 19a-b
Method: Nanopillar arrays were cleaned and sterilized by air plasma and UV exposure before cell culture. The nanochip was then coated with fibronectin ([…], Sigma-Aldrich) for 30 minutes under 37° C. The SK-N-SH cells were seeded on the nanostructures after coating and grown in Eagle's Minimum Essential Medium (MEM) supplemented with 2 mM L-glutamine (Gibco), 1% MEM Non-Essential Amino Acids (NEAA) (Gibco), 10% fetal bovine serum (FBS) (Life Technologies) and 100 U ml^−1 penicillin and […] streptomycin (Life Technologies) in a standard incubator at 37° C. with 5% CO2. Drug treatment was done after overnight incubation, the SK-N-SH cells on nanostructures are treated with Etoposide (ETOP) (Sigma), Doxorubicin (DOX) (Sigma) or Dimethyl sulfoxide (DMSO) (Sigma). […]
(§1) Fluorescence imaging and live cell imaging were done by confocal microscopy (Zeiss LSM 800 with Airyscan or a spinning disc confocal microscope (SDC) that is built around a Nikon Ti2 inverted microscope equipped with a Yokogawa CSU-W1 confocal spinning head). […] The live cell imaging and subsequent fluorescence imaging were done by SDC and the image acquisition and processing was controlled by MetaMorph (Molecular Device) software.

SK-N-SH cells [2] = assay: Nanopillar-guided subnuclear anisotropicity after anti-cancer drug treatment; settings: SK-N-SH on nanopillar arrays, 24 h, DOX 1 μM, Etop 10 μM; for fraction of cells with dominant isotropic ring features and low deformation coherency: DMSO control 0.262±0.160, FIG. 19e; for pillar coherency: DMSO control 0.3853±0.1448, FIG. 19d
Method: Nanopillar arrays were cleaned and sterilized by air plasma and UV exposure before cell culture. The nanochip was then coated with fibronectin ([…], Sigma-Aldrich) for 30 minutes under 37° C. The SK-N-SH cells were seeded on the nanostructures after coating and grown in Eagle's Minimum Essential Medium (MEM) supplemented with 2 mM L-glutamine (Gibco), 1% MEM Non-Essential Amino Acids (NEAA) (Gibco), 10% fetal bovine serum (FBS) (Life Technologies) and 100 U ml^−1 penicillin and […] streptomycin (Life Technologies) in a standard incubator at 37° C. with 5% CO2. Drug treatment was done after overnight incubation, the SK-N-SH cells on nanostructures are treated with Etoposide (ETOP) (Sigma), Doxorubicin (DOX) (Sigma) or Dimethyl sulfoxide (DMSO) (Sigma). After 24-hour incubation, the treated cells and untreated cells were fixed with 4% Paraformaldehyde (PFA) Solution in PBS (Boster biological technology AR1068) for 15 minutes for subsequent immunostaining.
The nuclear morphology in SK-N-SH cells were visualized by immunostaining lamin A and lamin B1. The lamin A and vimentin level in cells were characterized by immunostaining lamin A and vimentin. Cells were cultured on nanopillars and incubated overnight before fixation with pre-warmed 4% Paraformaldehyde (PFA) in PBS (Boster biological technology AR1068) for 15 minutes at room temperature. After washing with PBS for three times, the cells were permeabilized in 0.5% Triton X-100 (Sigma) in PBS for 15 minutes, followed by blocking with 5% bovine serum albumin (BSA) (Sigma) in PBS for 1 hour. Subsequently, samples were incubated with primary antibodies (anti-lamin A, Abcam, ab26300; anti-lamin B1, Abcam, ab16048; anti-vimentin, Sigma, V5255.) at 1:400 dilution at room temperature for 1 hour or 4° C. overnight. […]
as §1
The guided subnuclear irregularities were characterized by measurement of their anisotropicity. […] After thresholding the cropped images of lamin A channel using the masks, the coherency, an indicator for anisotropy property, of the nanopillar-guided nuclear features was measured using orientationJ (a plugin function in ImageJ).

MDA-MB-231 cells [3] = assay: Nanopillar-guided subnuclear deformation anisotropy (coherency) after drug treatment
Method: Prior to cell culture, the nanostructured chips were cleaned by air plasma for 10 min and exposed to UV for 15 min Subsequently, the nanostructured substrates were coated with fibronectin (2 ug/ml, Sigma-Aldrich) for 30 minutes at 37° C. After coating, cell culture was performed on the substrates. All the cell lines used in this work were maintained in the Dulbecco's Modified Eagle Medium (DMEM) (Gibco) supplemented with 10% fetal bovine serum (FBS) (Life Technologies) and 1% Penicillin-Streptomycin (Life Technologies) in a standard incubator at 37° C. with 5% CO2. […] After 24-hour incubation, the treated cells and untreated cells were fixed with 4% Paraformaldehyde (PFA) Solution in PBS (Boster biological technology AR1068) for 15 minutes for subsequent immunostaining
Cells cultured on nanopillar arrays were immunostained for lamin A or lamin B1. Cells were washed with pre-warmed PBS two times and fixed with 4% paraformaldehyde (PFA) in phosphate-buffered saline (PBS) (Boster biological technology AR1068) for 15 minutes. The cells were washed three times with PBS and then permeabilized with 0.5% Triton X-100 (Sigma) in PBS for 15 minutes. After washing with PBS for three times, samples were blocked using 5% bovine serum albumin (BSA) (Sigma) in PBS for 1 hour before staining with 1:400 anti-lamin A (Abcam ab26300) and anti-lamin B1 (gift from the Saggio lab in Sapienza University of Rome). Samples were washed three times with PBS and stained with the secondary antibody, Chicken anti-Rabbit IgG (H+L) Cross-Adsorbed Secondary Antibody, Alexa Fluor 488 (Invitrogen A21441), 1:500 in staining buffer for 1 hour under room temperature.
Imaging of the fluorescently labeled cells on nanopillar arrays was performed using laser scanning confocal microscopy (Zeiss LSM 800 with Airyscan). In particular, a Plan-Apochromat 100×/1.4 oil objective was used. During imaging, fixed cells were maintained in PBS. Z stack images were acquired with 500 nm distance between each frame.
Anisotropicity of nanopillar-guided subnuclear shape irregularities was measured on nanopillar arrays. Firstly, one image with the best signal-to-background ratio in the stack was selected for subsequent characterization. Square masks (2.75 μm*2.75 μm) centered by the individual nanopillars were manually drawn based on the brightfield channel. Features that were guided by individual nanopillars were cropped using the generated masks. Subsequently, binary images of the guided features were extracted based on the background intensity (2 times of lowest 10% intensity used as a threshold) in the cropped images. Then, the anisotropicity of the subnuclear shape irregularities was measured as coherency, an indicator for anisotropy property, using orientationJ (a plugin function in ImageJ).

MDA-MB-231 cells [4] = assay: Wound healing assay (migration rate); settings: MDA-MB-231, treatment for 24 h vs DMSO, p value=0.0363; FIG. 9e-f
Method: (§2) Cells were maintained in 35 mm dishes for each cell line until approximately 90% confluent. Scratch was made in the confluent monolayer of cells with a sterile […] pipette tip, and fresh culture medium was replaced. Brightfield microscopic pictures were taken of the same field at 24 hours. Migration rate was measured by quantifying the closure area within the same time frame using ImageJ.

MCF-7 cells [5] = assay: Wound healing assay (migration rate); settings: MCF-7, treatment for 24 h vs DMSO, p value=0.7440; FIG. 9e-f
Method: as §2

MCF-7 cells [6] = assay: Nanopillar-guided subnuclear deformation anisotropy (coherency) after drug treatment; settings: MCF-7 on nanopillar arrays, treated vs DMSO; FIG. 9c-d
Method: Prior to cell culture, the nanostructured chips were cleaned by air plasma for 10 min and exposed to UV for 15 min Subsequently, the nanostructured substrates were coated with fibronectin (2 ug/ml, Sigma-Aldrich) for 30 minutes at 37° C. After coating, cell culture was performed on the substrates. All the cell lines used in this work were maintained in the Dulbecco's Modified Eagle Medium (DMEM) (Gibco) supplemented with 10% fetal bovine serum (FBS) (Life Technologies) and 1% Penicillin-Streptomycin (Life Technologies) in a standard incubator at 37° C. with 5% CO2. […]
Imaging of the fluorescently labeled cells on nanopillar arrays was performed using laser scanning confocal microscopy (Zeiss LSM 800 with Airyscan). […] Live cell imaging and the subsequent fluorescence imaging was performed using a spinning disc confocal microscope (SDC) that is built around a Nikon Tit inverted microscope equipped with a Yokogawa CSU-W1 confocal spinning head, a Plan-Apo objective (100×1.45-NA), a back-illuminated sCMOS camera (Orca-Fusion; Hamamatsu). […]
Anisotropicity of nanopillar-guided subnuclear shape irregularities was measured on nanopillar arrays. […] Then, the anisotropicity of the subnuclear shape irregularities was measured as coherency, an indicator for anisotropy property, using orientationJ (a plugin function in ImageJ).

| Structure (SMILES) | lamin A level (in words) (SK-N-SH cells [1]) | fraction of cells with dominant isotropic ring features and low deformation coherency (SK-N-SH cells [2]) | pillar coherency (SK-N-SH cells [2]) | lowest concentration at which pillar coherency value and fraction of line-deformation cells responded (MDA-MB-231 cells [3]; MDA-MB-231, DMSO, 1 μM and 10 μM tested, FIG. 14) [µM] | pillar coherency value (MDA-MB-231 cells [3]; MDA-MB-231 on nanopillar arrays (500 nm diameter, 3 μm pitch), 24-hour treatment, DMSO control 0.4218±0.1305, FIG. 9c) | fraction of line-deformation cells (MDA-MB-231 cells [3]; MDA-MB-231 on nanopillar arrays, 24-hour treatment, line = cell coherency >0.3, DMSO control 0.9333±0.1155, FIG. 9d) | change in nuclear deformation coherency / line deformation (in words) (MDA-MB-231 cells [3]; MDA-MB-231 on nanopillar arrays, treated vs DMSO) | migration rate change (in words) (MDA-MB-231 cells [4]) | migration speed change (in words) (MCF-7 cells [5]) | change in anisotropy (coherency) of induced nuclear deformation (in words) (MCF-7 cells [6]) |
| --- | --- | --- | --- | --- | --- | --- | --- | --- | --- | --- |
| COc1cccc2c1C(=O)c1c(O)c3c(c(O)c1C2=O)C[C@@](O)(C(=O)CO)C[C@@H]3O[C@H]1C[C@H](N)[C@H](O)[C@H](C)O1 [DOX, doxorubicin] | significantly high lamin A level | 0.607±0.152 | 0.3057±0.1862 | – | – | – | – | – | – | – |
| COc1cc([C@@H]2c3cc4c(cc3[C@@H](O[C@@H]3O[C@@H]5CO[C@@H](C)O[C@H]5[C@H](O)[C@H]3O)[C@H]3COC(=O)[C@H]23)OCO4)cc(OC)c1O [Etop, etoposide] | significantly high lamin A level | 0.772±0.079 | 0.2606±0.1564 | – | – | – | – | – | – | – |
| COc1cc(/C=C/C(=O)CC(=O)/C=C/c2ccc(O)c(OC)c2)ccc1O [curcumin] | – | – | – | 1 | 0.2426±0.1570 | 0.2646±0.2695 | significant decreases in nuclear deformation coherency; also recorded: significantly less line deformation | lower migration rate | do not show significant changes in migration speed | no significant coherency changes; also recorded: No significant change |
